Measured values as given in patent publication US11319299B2, “Substituted carboxamides as inhibitors of WDR5 protein-protein binding” (PROPELLON THERAPEUTICS INC., priority 2016, dated 2022).

Molecular target: WDR5 (Homo sapiens (Human), UniProt P61964)
Assay: Surface Plasmon Resonance (SPR) assay, KD and residence time
Assay type: binding
Conditions: surface plasmon resonance (SPR); read-out: WDR5 binding affinity (KD)

`COc1cnc(N2CCC=C(c3cc(NC(=O)c4c[nH]c(=O)cc4C(F)F)c(N4C[C@@H](C)N(C)[C@@H](C)C4)cc3F)C2)nc1` [Example 645, 4-(difluoromethyl)-N-[4-fluoro-5-[1-(5-methoxypyrimidin-2-yl)-3,6-dihydro-2H-pyridin-5-yl]-2-[(3R,5S)-3,4,5-trimethylpiperazin-1-yl]phenyl]-6-oxo-1H-pyridine-3-carboxamide] and `C[C@@H]1CN(c2cc(F)c(C3=CCN(c4ncc(C=O)cn4)CC3)cc2NC(=O)c2c[nH]c(=O)cc2C(F)F)C[C@H](C)N1C` [Example 646, 4-(difluoromethyl)-N-[4-fluoro-5-[1-(5-formylpyrimidin-2-yl)-3,6-dihydro-2H-pyridin-4-yl]-2-[(3R,5S)-3,4,5-trimethylpiperazin-1-yl]phenyl]-6-oxo-1H-pyridine-3-carboxamide] are the same in Kd: 1.41 nM for the first, 1.41 nM for the second.

First: COc1cc(N2CC=C(c3cc(NC(=O)c4c[nH]c(=O)cc4C(F)F)c(N4C[C@@H](C)N(C)[C@@H](C)C4)cc3F)CC2)ncn1 [Example 647, 4-(difluoromethyl)-N-[4-fluoro-5-[1-(6-methoxypyrimidin-4-yl)-3,6-dihydro-2H-pyridin-4-yl]-2-[(3R,5S)-3,4,5-trimethylpiperazin-1-yl]phenyl]-6-oxo-1H-pyridine-3-carboxamide]
Second: C[C@@H]1CN(c2cc(F)c(C3=CCN(C(=O)OC4(C)CCC4)CC3)cc2NC(=O)c2c[nH]c(=O)cc2C(F)F)C[C@H](C)N1C [Example 651, (1-methylcyclobutyl) 4-[5-[[4-(difluoromethyl)-6-oxo-1H-pyridine-3-carbonyl]amino]-2-fluoro-4-[(3R,5S)-3,4,5-trimethylpiperazin-1-yl]phenyl]-3,6-dihydro-2H-pyridine-1-carboxylate]
The Kd of the first is 1.8-fold higher: 1.59 nM for the first, 0.897 nM for the second.

First: CCOC(=O)N1CCC=C(c2cc(NC(=O)c3c[nH]c(=O)cc3C(F)F)c(N3C[C@@H](C)N(C)[C@@H](C)C3)cc2F)C1 [Example 648, Ethyl 5-[5-[[4-(difluoromethyl)-6-oxo-1H-pyridine-3-carbonyl]amino]-2-fluoro-4-[(3R,5S)-3,4,5-trimethylpiperazin-1-yl]phenyl]-3,6-dihydro-2H-pyridine-1-carboxylate]
Second: CC(C)OC(=O)N1CCC=C(c2cc(NC(=O)c3c[nH]c(=O)cc3C(F)(F)F)c(N3C[C@@H](C)N(C)[C@@H](C)C3)cc2F)CC1 [Example 674, Propan-2-yl 4-[2-fluoro-5-[[6-oxo-4-(trifluoromethyl)-1H-pyridine-3-carbonyl]amino]-4-[(3R,5S)-3,4,5-trimethylpiperazin-1-yl]phenyl]-2,3,6,7-tetrahydroazepine-1-carboxylate]
The Kd of the first is 2.5-fold lower: 1.97 nM for the first, 4.94 nM for the second.

First: C[C@@H]1CN(c2cc(F)c(-c3cc(F)c(C(N)=O)c(F)c3)cc2NC(=O)c2ccc(F)cc2C(F)(F)F)C[C@H](C)N1C [Example 656, 2,6-difluoro-4-[2-fluoro-5-[[4-fluoro-2-(trifluoromethyl)benzoyl]amino]-4-[(3R,5S)-3,4,5-trimethylpiperazin-1-yl]phenyl]benzamide]
Second: C[C@@H]1CN(c2cc(F)c(-c3cc(F)c(C(N)=O)c(F)c3)cc2NC(=O)c2c[nH]c(=O)cc2C(F)(F)F)C[C@H](C)N1C [Example 658, N-[5-(4-carbamoyl-3,5-difluorophenyl)-4-fluoro-2-[(3R,5S)-3,4,5-trimethylpiperazin-1-yl]phenyl]-6-oxo-4-(trifluoromethyl)-1H-pyridine-3-carboxamide]
The Kd of the first is 2.9-fold higher: 5.44 nM for the first, 1.88 nM for the second.

First: C[C@@H]1CN(c2cc(F)c(-c3cc(F)c(C(N)=O)c(F)c3)cc2NC(=O)c2c[nH]c(=O)cc2C(F)F)C[C@H](C)N1C [Example 659, N-[5-(4-carbamoyl-3,5-difluorophenyl)-4-fluoro-2-[(3R,5S)-3,4,5-trimethylpiperazin-1-yl]phenyl]-4-(difluoromethyl)-6-oxo-1H-pyridine-3-carboxamide]
Second: C[C@@H]1CN(c2cc(F)c(-c3ccc(C(N)=O)c(F)c3F)cc2NC(=O)c2c[nH]c(=O)cc2C(F)(F)F)C[C@H](C)N1C [Example 670, N-[5-(4-carbamoyl-2,3-difluorophenyl)-4-fluoro-2-[(3R,5S)-3,4,5-trimethylpiperazin-1-yl]phenyl]-6-oxo-4-(trifluoromethyl)-1H-pyridine-3-carboxamide]
The Kd of the first is 2-fold lower: 1.93 nM for the first, 3.85 nM for the second. The first binds more tightly here.

`CC(C)N1CCN(c2ncc(-c3cc(NC(=O)c4cn(C)c(=O)cc4C(F)(F)F)c(N4C[C@@H](C)N(C)[C@@H](C)C4)cc3F)cn2)CC1` [Example 661, N-[4-fluoro-5-[2-(4-propan-2-ylpiperazin-1-yl)pyrimidin-5-yl]-2-[(3R,5S)-3,4,5-trimethylpiperazin-1-yl]phenyl]-1-methyl-6-oxo-4-(trifluoromethyl)pyridine-3-carboxamide] and `C[C@@H]1CN(c2cc(F)c(-c3cnc(N4CCOC(C)(C)C4)nc3)cc2NC(=O)c2cn(C)c(=O)cc2C(F)(F)F)C[C@H](C)N1C` [Example 662, N-[5-[2-(2,2-dimethylmorpholin-4-yl)pyrimidin-5-yl]-4-fluoro-2-[(3R,5S)-3,4,5-trimethylpiperazin-1-yl]phenyl]-1-methyl-6-oxo-4-(trifluoromethyl)pyridine-3-carboxamide] are within 1.5-fold of each other in Kd: 3.23 nM for the first, 2.29 nM for the second.

First: C[C@@H]1CN(c2cc(F)c(-c3ccc(C(=O)NC(C)(C)CC(C)(C)C)c(F)c3F)cc2NC(=O)c2ccc(F)cc2C(F)(F)F)C[C@H](C)N1C [Example 665, 2,3-difluoro-4-[2-fluoro-5-[[4-fluoro-2-(trifluoromethyl)benzoyl]amino]-4-[(3R,5S)-3,4,5-trimethylpiperazin-1-yl]phenyl]-N-(2,4,4-trimethylpentan-2-yl)benzamide]
Second: C[C@@H]1CN(c2cc(F)c(-c3ccc(C(=O)NC(C)(C)CC(C)(C)C)c(F)c3F)cc2NC(=O)c2c[nH]c(=O)cc2C(F)(F)F)C[C@H](C)N1C [Example 669, N-[5-[2,3-difluoro-4-(2,4,4-trimethylpentan-2-ylcarbamoyl)phenyl]-4-fluoro-2-[(3R,5S)-3,4,5-trimethylpiperazin-1-yl]phenyl]-6-oxo-4-(trifluoromethyl)-1H-pyridine-3-carboxamide]
The Kd of the first is 16-fold higher: 151 nM for the first, 9.71 nM for the second. The second binds more tightly here.

First: C[C@@H]1CN(c2cc(F)c(-c3ccc(C(N)=O)c(F)c3F)cc2NC(=O)c2ccc(F)cc2C(F)(F)F)C[C@H](C)N1C [Example 667, 2,3-difluoro-4-[2-fluoro-5-[[4-fluoro-2-(trifluoromethyl)benzoyl]amino]-4-[(3R,5S)-3,4,5-trimethylpiperazin-1-yl]phenyl]benzamide]
Second: C[C@@H]1CN(c2cc(F)c(-c3ccc4c(c3)ncn4C)cc2NC(=O)c2c[nH]c(=O)cc2C(F)(F)F)C[C@H](C)N1C [Example 675, N-[4-fluoro-5-(1-methylbenzimidazol-5-yl)-2-[(3R,5S)-3,4,5-trimethylpiperazin-1-yl]phenyl]-6-oxo-4-(trifluoromethyl)-1H-pyridine-3-carboxamide]
The Kd of the first is 4.9-fold higher: 9.65 nM for the first, 1.97 nM for the second. The second binds more tightly here.

In the case of `C[C@@H]1CN(c2cc(F)c(-c3ccc4ncn(C)c4c3)cc2NC(=O)c2c[nH]c(=O)cc2C(F)(F)F)C[C@H](C)N1C` [Example 676, N-[4-fluoro-5-(3-methylbenzimidazol-5-yl)-2-[(3R,5S)-3,4,5-trimethylpiperazin-1-yl]phenyl]-6-oxo-4-(trifluoromethyl)-1H-pyridine-3-carboxamide], the Kd is reported as 4.39 nM.
